From article PMC5218480 (PLoS ONE, 2017) come the findings set out here.

The assay concerns MV-4-11 cells. Put plainly: Gene expression microarray analysis (Affymetrix PrimeView) and GSEA. The assay is classed as cell-based, human. The arrangement: RFU PODN (11730768_x_at) / Fold change /veh PODN (11730768_x_at) / RFU LINC00158 (11744669_a_at) / Fold change /veh LINC00158 (11744669_a_at) / RFU DUSP10 (11751237_a_at) / Fold change /veh DUSP10 (11751237_a_at) / RFU ID3 (11757404_x_at) / Fold change /veh ID3 (11757404_x_at) / RFU PLEKHG5 (11737974_s_at) / Fold change /veh PLEKHG5 (11737974_s_at) / RFU LRRC4B (11730491_at) / Fold change /veh LRRC4B (11730491_at) / RFU GIMAP4 (11747438_a_at) / Fold change /veh GIMAP4 (11747438_a_at) / RFU KRT8 (11758183_x_at) / Fold change /veh KRT8 (11758183_x_at) / RFU CNN1 (11734310_a_at) / Fold change /veh CNN1 (11734310_a_at) / RFU VPS37D (11726825_at) / Fold change /veh VPS37D (11726825_at) / RFU C10orf10 (11716522_x_at) / Fold change /veh C10orf10 (11716522_x_at) / RFU KIR2DL2 /// KIR2DL4 /// KIR2DL5A /// KIR2DL5B /// KIR2DS1 /// KIR2DS2 /// KIR2DS3 /// KIR2DS4 /// KIR3DL3 /// KIR3DL3 /// KIR3DS1 (11738374_at) / Fold change /veh KIR2DL2 /// KIR2DL4 /// KIR2DL5A /// KIR2DL5B /// KIR2DS1 /// KIR2DS2 /// KIR2DS3 /// KIR2DS4 /// KIR3DL3 /// KIR3DL3 /// KIR3DS1 (11738374_at) / RFU C1QL1 (11718748_at) / Fold change /veh C1QL1 (11718748_at) / RFU TMPRSS4 (11747572_a_at) / Fold change /veh TMPRSS4 (11747572_a_at) / RFU HAMP (11756126_x_at) / Fold change /veh HAMP (11756126_x_at) / RFU RNFT2 (11725882_a_at) / Fold change /veh RNFT2 (11725882_a_at) / RFU NR4A2 (11747474_a_at) / Fold change /veh NR4A2 (11747474_a_at) / RFU ABCC12 (11746883_a_at) / Fold change /veh ABCC12 (11746883_a_at) / RFU TMEM136 (11760407_x_at) / Fold change /veh TMEM136 (11760407_x_at) / RFU CLDN22 /// WWC2 (11732394_at) / Fold change /veh CLDN22 /// WWC2 (11732394_at) / RFU HLA-DPB1 (11760878_x_at) / Fold change /veh HLA-DPB1 (11760878_x_at) / RFU SPINT1 (11716480_a_at) / Fold change /veh SPINT1 (11716480_a_at) / RFU GAP43 (11754022_s_at) / Fold change /veh GAP43 (11754022_s_at) / RFU A4GNT (11735810_at) / Fold change /veh A4GNT (11735810_at) / RFU PRB3 (11715151_x_at) / Fold change /veh PRB3 (11715151_x_at) / RFU TUBB4B (11761932_at) / Fold change /veh TUBB4B (11761932_at) / RFU CAPN14 (11732068_a_at) / Fold change /veh CAPN14 (11732068_a_at) / RFU TMCC2 (11721928_a_at) / Fold change /veh TMCC2 (11721928_a_at) / RFU IRGQ (11745062_a_at) / Fold change /veh IRGQ (11745062_a_at) / RFU FAM174B (11720279_a_at) / Fold change /veh FAM174B (11720279_a_at) / RFU TMPRSS4 (11748680_a_at) / Fold change /veh TMPRSS4 (11748680_a_at) / RFU FAM212B (11763350_a_at) / Fold change /veh FAM212B (11763350_a_at) / RFU PLEKHG5 (11743358_a_at) / Fold change /veh PLEKHG5 (11743358_a_at) / RFU ZSCAN30 (11745921_a_at) / Fold change /veh ZSCAN30 (11745921_a_at) / RFU CMKLR1 (11741424_a_at) / Fold change /veh CMKLR1 (11741424_a_at) / RFU LOC101060620 /// MAPK8IP1 (11723275_at) / Fold change /veh LOC101060620 /// MAPK8IP1 (11723275_at) / RFU SPTSSB (11747773_x_at) / Fold change /veh SPTSSB (11747773_x_at) / RFU PRSS12 (11739890_at) / Fold change /veh PRSS12 (11739890_at) / RFU BIN1 (11741810_x_at) / Fold change /veh BIN1 (11741810_x_at) / RFU WNT11 (11732464_a_at) / Fold change /veh WNT11 (11732464_a_at) / RFU C10orf10 (11716521_a_at) / Fold change /veh C10orf10 (11716521_a_at) / RFU C5orf56 (11738089_at) / Fold change /veh C5orf56 (11738089_at) / RFU CYB561 (11721691_x_at) / Fold change /veh CYB561 (11721691_x_at) / RFU ANKRD19P (11752326_a_at) / Fold change /veh ANKRD19P (11752326_a_at) / RFU OR2T12 /// OR2T33 /// OR2T8 (11738714_s_at) / Fold change /veh OR2T12 /// OR2T33 /// OR2T8 (11738714_s_at) / RFU VCAN (11748164_a_at) / Fold change /veh VCAN (11748164_a_at) / RFU JSRP1 (11732532_at) / Fold change /veh JSRP1 (11732532_at) / RFU KRTAP10-11 (11738290_x_at) / Fold change /veh KRTAP10-11 (11738290_x_at) / RFU MYO3A (11730013_a_at) / Fold change /veh MYO3A (11730013_a_at) / RFU EBF3 (11725865_a_at) / Fold change /veh EBF3 (11725865_a_at) / RFU CAMK2N1 (11719241_x_at) / Fold change /veh CAMK2N1 (11719241_x_at) / RFU C5orf56 (11738088_a_at) / Fold change /veh C5orf56 (11738088_a_at) / RFU OLFML3 (11715873_a_at) / Fold change /veh OLFML3 (11715873_a_at) / RFU LOC100653217 /// NTM (11731650_a_at) / Fold change /veh LOC100653217 /// NTM (11731650_a_at) / RFU MAPK11 (11762145_a_at) / Fold change /veh MAPK11 (11762145_a_at) / RFU FIZ1 (11724087_x_at) / Fold change /veh FIZ1 (11724087_x_at) / RFU OASL (11726364_x_at) / Fold change /veh OASL (11726364_x_at) / RFU SOX15 (11748057_x_at) / Fold change /veh SOX15 (11748057_x_at) / RFU CD79A (11719716_a_at) / Fold change /veh CD79A (11719716_a_at) / RFU HIST1H1D (11736915_at) / Fold change /veh HIST1H1D (11736915_at) / RFU CASKIN2 (11723855_a_at) / Fold change /veh CASKIN2 (11723855_a_at) / RFU LOC730098 (11760151_x_at) / Fold change /veh LOC730098 (11760151_x_at) / RFU OR4N2 (11742367_at) / Fold change /veh OR4N2 (11742367_at) / RFU PRRT2 (11749266_a_at) / Fold change /veh PRRT2 (11749266_a_at) / RFU SNX32 (11753110_a_at) / Fold change /veh SNX32 (11753110_a_at) / RFU CDHR5 (11726645_a_at) / Fold change /veh CDHR5 (11726645_a_at) / RFU RCAN1 (11760418_a_at) / Fold change /veh RCAN1 (11760418_a_at) / RFU FAM167A (11723789_a_at) / Fold change /veh FAM167A (11723789_a_at) / RFU FAM26E (11764081_at) / Fold change /veh FAM26E (11764081_at) / RFU ISYNA1 (11749810_s_at) / Fold change /veh ISYNA1 (11749810_s_at) / RFU ACY1 (11761880_at) / Fold change /veh ACY1 (11761880_at) / RFU 11764098_at / Fold change /veh 11764098_at / RFU SAMD14 (11745864_x_at) / Fold change /veh SAMD14 (11745864_x_at) / RFU NPB (11741838_a_at) / Fold change /veh NPB (11741838_a_at) / RFU TMPRSS6 (11731388_a_at) / Fold change /veh TMPRSS6 (11731388_a_at) / RFU KRTAP10-2 (11738614_at) / Fold change /veh KRTAP10-2 (11738614_at) / RFU ARHGAP8 /// PRR5-ARHGAP8 (11727945_x_at) / Fold change /veh ARHGAP8 /// PRR5-ARHGAP8 (11727945_x_at) / RFU KRTAP5-7 /// NADSYN1 (11734609_at) / Fold change /veh KRTAP5-7 /// NADSYN1 (11734609_at) / RFU RASL12 (11751679_a_at) / Fold change /veh RASL12 (11751679_a_at) / RFU CDKN2B (11736163_a_at) / Fold change /veh CDKN2B (11736163_a_at) / RFU PRF1 (11729649_at) / Fold change /veh PRF1 (11729649_at) / RFU, ZNF638 /// ZNF638-IT1 / Fold change vs veh, ZNF638 /// ZNF638-IT1 / RFU, PANK3 / Fold change vs veh, PANK3 / RFU, SH3YL1 / Fold change vs veh, SH3YL1 / RFU, ZEB2 / Fold change vs veh, ZEB2 / RFU, NRIP1 / Fold change vs veh, NRIP1 / RFU, PTTG1IP / Fold change vs veh, PTTG1IP / RFU, CAPN2 / Fold change vs veh, CAPN2 / RFU, MED14 / Fold change vs veh, MED14 / RFU, SNORA58 / Fold change vs veh, SNORA58 / RFU, C1orf63 / Fold change vs veh, C1orf63 / RFU, LRRFIP1 / Fold change vs veh, LRRFIP1 / RFU, NDUFAF7 / Fold change vs veh, NDUFAF7 / RFU, SLC12A2 / Fold change vs veh, SLC12A2 / RFU, IBTK / Fold change vs veh, IBTK / RFU, ESF1 / Fold change vs veh, ESF1 / Fold change vs veh, TMEM50B / RFU, TAOK1 / Fold change vs veh, TAOK1 / RFU, ACBD3 / Fold change vs veh, ACBD3 / RFU, TMA16 / Fold change vs veh, TMA16 / RFU, RWDD3 / Fold change vs veh, RWDD3 / RFU, BCAT1 / Fold change vs veh, BCAT1 / RFU, EDEM3 / Fold change vs veh, EDEM3 / RFU, TMEM33 / Fold change vs veh, TMEM33 / RFU, WDR75 / Fold change vs veh, WDR75 / RFU, AHCTF1 / Fold change vs veh, AHCTF1 / RFU, TFRC / Fold change vs veh, TFRC / RFU, ZDHHC17 / Fold change vs veh, ZDHHC17 / RFU, NOM1 / Fold change vs veh, NOM1 / RFU, ARL8B / Fold change vs veh, ARL8B / RFU, ZBTB11 / Fold change vs veh, ZBTB11 / RFU, TAMM41 / Fold change vs veh, TAMM41 / RFU, KIAA1704 /// LOC100996395 / Fold change vs veh, KIAA1704 /// LOC100996395 / RFU, ING1 / Fold change vs veh, ING1 / RFU, TRMT61B / Fold change vs veh, TRMT61B / RFU, FUBP3 / Fold change vs veh, FUBP3 / RFU, TP53 / Fold change vs veh, TP53 / RFU, TNKS2 / Fold change vs veh, TNKS2 / RFU, ZFP14 / Fold change vs veh, ZFP14 / RFU, ACTR2 / Fold change vs veh, ACTR2 / RFU, PPP3R1 / Fold change vs veh, PPP3R1 / RFU, PIK3R1 / Fold change vs veh, PIK3R1 / RFU, HNRNPA1 / Fold change vs veh, HNRNPA1 / RFU, RNF170 / Fold change vs veh, RNF170 / RFU, ZNF28 / Fold change vs veh, ZNF28 / RFU, RNGTT / Fold change vs veh, RNGTT / RFU, OGT / Fold change vs veh, OGT / RFU, BRD1 / Fold change vs veh, BRD1 / RFU, MARS / Fold change vs veh, MARS / RFU, ZNF655 / Fold change vs veh, ZNF655 / RFU, FAHD1 / Fold change vs veh, FAHD1 / RFU, BDP1 / Fold change vs veh, BDP1 / RFU, LRRCC1 / Fold change vs veh, LRRCC1 / RFU, ARID1A / Fold change vs veh, ARID1A / RFU, ZNF146 / Fold change vs veh, ZNF146 / RFU, ZNF330 / Fold change vs veh, ZNF330 / RFU, GPN3 / Fold change vs veh, GPN3 / RFU, C9orf123 / Fold change vs veh, C9orf123 / RFU, N4BP2L2 / Fold change vs veh, N4BP2L2 / RFU, ARFIP1 / Fold change vs veh, ARFIP1 / RFU, FAM179B / Fold change vs veh, FAM179B / RFU, BCL10 / Fold change vs veh, BCL10 / RFU, UHRF1BP1L / Fold change vs veh, UHRF1BP1L / RFU, BET1 / Fold change vs veh, BET1 / RFU, CNOT2 / Fold change vs veh, CNOT2 / RFU, ZNF268 / Fold change vs veh, ZNF268 / Fold change vs veh, ZNF507 / RFU, DGCR2 / Fold change vs veh, DGCR2 / RFU, WDSUB1 / Fold change vs veh, WDSUB1 / Fold change vs veh, HSP90B1 /// MIR3652 / RFU, ADSS / Fold change vs veh, ADSS / RFU, GK / Fold change vs veh, GK / RFU, ZNF148 / Fold change vs veh, ZNF148 / RFU, TAF9 / Fold change vs veh, TAF9 / RFU, SLC1A5 / Fold change vs veh, SLC1A5 / RFU, SLMO2 / Fold change vs veh, SLMO2 / RFU, ABCC4 / Fold change vs veh, ABCC4 / RFU, LOC101060439 /// RAP1B / Fold change vs veh, LOC101060439 /// RAP1B / RFU, RFX7 / Fold change vs veh, RFX7 / RFU, GTPBP10 / Fold change vs veh, GTPBP10 / RFU, CNEP1R1 / Fold change vs veh, CNEP1R1 / RFU, BIVM-ERCC5 /// ERCC5 / Fold change vs veh, BIVM-ERCC5 /// ERCC5 / RFU, ILF3 / Fold change vs veh, ILF3 / RFU 11762660_at / Fold change /veh 11762660_at / RFU VCAN (11757783_s_at) / Fold change /veh VCAN (11757783_s_at) / RFU DDX43 (11728927_at) / Fold change /veh DDX43 (11728927_at) / RFU KRT8 (11758188_x_at) / Fold change /veh KRT8 (11758188_x_at) / RFU NKD1 (11759106_at) / Fold change /veh NKD1 (11759106_at) / RFU SRD5A1 (11742802_a_at) / Fold change /veh SRD5A1 (11742802_a_at) / RFU TPSAB1 /// TPSB2 (11721975_s_at) / Fold change /veh TPSAB1 /// TPSB2 (11721975_s_at) / RFU GSTM3 (11746129_a_at) / Fold change /veh GSTM3 (11746129_a_at) / RFU IL23R (11737362_x_at) / Fold change /veh IL23R (11737362_x_at) / RFU TMEM51 (11727254_a_at) / Fold change /veh TMEM51 (11727254_a_at) / RFU PIWIL2 (11732686_x_at) / Fold change /veh PIWIL2 (11732686_x_at) / RFU ORM1 (11744905_x_at) / Fold change /veh ORM1 (11744905_x_at) / RFU CCDC152 (11743942_at) / Fold change /veh CCDC152 (11743942_at) / RFU ECM1 (11717891_a_at) / Fold change /veh ECM1 (11717891_a_at) / RFU IL23R (11748794_a_at) / Fold change /veh IL23R (11748794_a_at) / RFU TNFAIP8L3 (11732012_x_at) / Fold change /veh TNFAIP8L3 (11732012_x_at) / RFU MBOAT4 (11741988_at) / Fold change /veh MBOAT4 (11741988_at) / RFU 11764193_at / Fold change /veh 11764193_at / RFU TMEM53 (11763286_at) / Fold change /veh TMEM53 (11763286_at) / RFU MAGEB2 (11727129_at) / Fold change /veh MAGEB2 (11727129_at) / RFU TMEM200A (11744735_a_at) / Fold change /veh TMEM200A (11744735_a_at) / RFU CCDC152 (11751479_a_at) / Fold change /veh CCDC152 (11751479_a_at) / RFU FAM211A (11726209_a_at) / Fold change /veh FAM211A (11726209_a_at) / RFU RGS16 (11746705_a_at) / Fold change /veh RGS16 (11746705_a_at) / RFU VCAN (11755009_s_at) / Fold change /veh VCAN (11755009_s_at) / RFU RHOB (11743442_s_at) / Fold change /veh RHOB (11743442_s_at) / RFU RGS16 (11720943_a_at) / Fold change /veh RGS16 (11720943_a_at) / RFU RGS16 (11720944_at) / Fold change /veh RGS16 (11720944_at) / RFU, VPS4B / Fold change vs veh, VPS4B / RFU, CREB1 / Fold change vs veh, CREB1 / RFU, DNAJC13 / Fold change vs veh, DNAJC13 / RFU, GNAQ / Fold change vs veh, GNAQ / RFU, CDK5R1 / Fold change vs veh, CDK5R1 / RFU, ZRANB3 / Fold change vs veh, ZRANB3 / RFU, CUL4A / Fold change vs veh, CUL4A / RFU, CCNY / Fold change vs veh, CCNY / RFU, UFL1 / Fold change vs veh, UFL1 / RFU, COG3 / Fold change vs veh, COG3 / RFU, DIAPH2 / Fold change vs veh, DIAPH2 / RFU, SKA2 / Fold change vs veh, SKA2 / RFU, AFF3 / Fold change vs veh, AFF3 / RFU, LMF1 / Fold change vs veh, LMF1 / RFU, IPO11 / Fold change vs veh, IPO11 / RFU, DFFB / Fold change vs veh, DFFB / RFU, FOXP1 / Fold change vs veh, FOXP1 / RFU, CARD8 / Fold change vs veh, CARD8 / RFU, STRN3 / Fold change vs veh, STRN3 / RFU, ADK / Fold change vs veh, ADK / RFU, RASSF2 / Fold change vs veh, RASSF2 / RFU, WIPF1 / Fold change vs veh, WIPF1 / RFU, LARP1B / Fold change vs veh, LARP1B / RFU, RASA1 / Fold change vs veh, RASA1 / RFU, RB1 / Fold change vs veh, RB1 / RFU, PPFIA1 / Fold change vs veh, PPFIA1 / RFU, MAT2A / Fold change vs veh, MAT2A / RFU, CCT5 / Fold change vs veh, CCT5 / RFU, WDR92 / Fold change vs veh, WDR92 / RFU, CUX1 / Fold change vs veh, CUX1 / RFU, TTC7A / Fold change vs veh, TTC7A / RFU, TMEM135 / Fold change vs veh, TMEM135 / RFU, DEPTOR / Fold change vs veh, DEPTOR / RFU, CPM / Fold change vs veh, CPM / RFU, DNAJB6 / Fold change vs veh, DNAJB6 / RFU, CACNA2D3 / Fold change vs veh, CACNA2D3 / RFU, DTX4 / Fold change vs veh, DTX4 / RFU, TFCP2 / Fold change vs veh, TFCP2 / RFU, GMCL1 /// GMCL1P1 / Fold change vs veh, GMCL1 /// GMCL1P1 / RFU, AEBP2 / Fold change vs veh, AEBP2 / RFU, SNHG1 /// SNORD22 /// SNORD25 /// SNORD26 /// SNORD27 /// SNORD28 /// SNORD29 /// SNORD31 / Fold change vs veh, SNHG1 /// SNORD22 /// SNORD25 /// SNORD26 /// SNORD27 /// SNORD28 /// SNORD29 /// SNORD31 / Fold change (Aza/veh), C12orf56 (ProbeSet 11735607_a_at) / Fold change (ACY-1035/veh), C12orf56 (ProbeSet 11735607_a_at) / Fold change (Aza/veh), FGFR1OP (ProbeSet 11751329_s_at) / Fold change (ACY-1035/veh), FGFR1OP (ProbeSet 11751329_s_at) / Fold change (Aza/veh), VPS36 (ProbeSet 11739960_a_at) / Fold change (ACY-1035/veh), VPS36 (ProbeSet 11739960_a_at) / RFU SYPL1 (11715823_x_at) / Fold change /veh SYPL1 (11715823_x_at) / RFU IGFBP7 (11715501_s_at) / Fold change /veh IGFBP7 (11715501_s_at) / RFU REEP3 (11722064_at) / Fold change /veh REEP3 (11722064_at) / RFU IGLL1 (11728026_x_at) / Fold change /veh IGLL1 (11728026_x_at): dose or concentration left out as unconfirmed. The settings on record: ProbeSet 11727827_x_at; LIST B.

As for `Nc1ccc(-c2cccs2)cc1NC(=O)c1ccc2c(c1)cc(C1CC1)n2CCN1CCOCC1` [ACY-1035], the “RFU, NDUFAF7” value was found to be 59.45 RFU.
